In PMC9945084, “Stimulation of natural killer cells with small molecule inhibitors of CD38 for the treatment of neuroblastoma” (Chemical Science, 2023):
Several values for one entry are separate records, joined by “and”; a condition that tells them apart may be missing. Equal values may be shown once.

Key:
[1] = target: T1, human recombinant CD38 (hydrolase activity) (Homo sapiens, UniProt P28907); experiment: Human recombinant CD38 fluorometric enzyme assay, hydrolase activity (εNAD+); type: biochemical; conditions: for remaining activity at 50 µM: 50.0 μM compound, 10 nM recombinant CD38, 10 μM εNAD+; for IC50: recombinant CD38 enzyme assay; for decrease in potency relative to hit compound 1: CD38 hydrolase IC50 versus 1
T1 sequence (P28907 whole entry): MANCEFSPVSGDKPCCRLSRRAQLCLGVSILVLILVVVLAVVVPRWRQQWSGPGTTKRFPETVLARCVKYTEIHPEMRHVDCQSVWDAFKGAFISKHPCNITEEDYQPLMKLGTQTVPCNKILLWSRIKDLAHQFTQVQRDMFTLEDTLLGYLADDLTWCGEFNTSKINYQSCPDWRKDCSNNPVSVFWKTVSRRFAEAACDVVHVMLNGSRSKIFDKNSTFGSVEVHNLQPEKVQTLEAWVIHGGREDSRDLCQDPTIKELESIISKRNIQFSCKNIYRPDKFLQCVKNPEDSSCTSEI
Procedure: Compounds were screened for inhibition against CD38 hydrolase activity in a human recombinant CD38 fluorometric assay. Recombinant CD38 was diluted in assay diluent (PBS, 0.02% Tween-20, pH 7.4) to a 4× working concentration (40 nM). Test compounds were diluted in assay diluent to a working concentration of 200 μM. Working CD38 (25.0 μL) and the 4× test compound (25.0 μL) were pipetted into a black 96-well microplate and incubated for 15 minutes at 25 °C on an orbital shaker. Following incubation, 20 μM εNAD^+ (50 μL) was pipetted into each well and fluorescence intensity was measured kinetically for 10 minutes (ex/em: 300/410 nm) using a Molecular Devices SpectraMax iD3 plate reader. Final concentrations of all components were: 10 nM recombinant CD38, 50 μM test compound (50 nM for control compound 3), and 10 μM εNAD^+. Means for data points at 1 minute 49 seconds were normalized to vehicle treated control. Values were expressed as percent remaining activity of CD38. Each assay was conducted in technical and experimental triplicate and compared to literature reported values of 14.

CD38 hydrolase activity [2] = conditions: cited from earlier work
[3] = system: Human PB NK cells (IFNγ secretion); experiment: Quantitation of IFNγ secreted by PB NK cells, 24 h (Lumit IFNγ assay); type: cell-based
Procedure: In light of the substantial change in viability/proliferation of PB NK cells following treatment with 2, changes in the ability of treated NK cells to secrete IFNγ were measured.[60,61] Human PB NK cells (purity > 90%) were added to a 96-well plate at a confluency of 49 000 cells per well in Immunocult-XF T cell expansion medium supplemented with 500 IU mL^−1 IL-2, 10 ng mL^−1 IL-15, and 0.2 μL mL^−1 CD2/CD3/CD28 T cell activator. These cells were exposed to varying concentrations of 2 or 14 for 24 hours, followed by quantification of IFNγ using a Lumit IFNγ assay kit (W6040, Promega, Madison, WI). Treatment groups were normalized to vehicle-treated control and data was expressed as percent change in IFNγ. As often happens, we encountered a wide variability in the response of human primary cells from different donors. […] Despite the variability in the magnitude of the IFNγ response, the trend in all 3 donors was a dose-dependent increase for both 2 and 14. Decreases in IFNγ expression at higher doses of both compounds in donors 2 and 3 may be due to modest cytotoxicity.
Human PB NK cells were plated at 49 000 cells per well (60 μL per well) on a white, clear-bottom, 96-well microplate in Immunocult-XF T cell expansion medium supplemented with 1× penicillin/streptomycin, 500 IU mL^−1 IL-2, 10 ng mL^−1 IL-15, 0.2 μL mL^−1 CD2/CD3/CD28 T cell activator. Test compounds were dissolved in DMSO and diluted to a 4× working solution. Working test compound was added to the cells (20 μL) and the cells were incubated at 37 °C, 5% CO2 for 24 hours. The last 3 columns on the microplate were left empty for IFNγ standards. The provided human IFNγ standard (10 μg mL^−1) was diluted to 10 000 pg mL^−1 using cell culture medium. The 10 000 pg mL^−1 solution was serially diluted 3.33-fold for a total of 7 standard concentrations. The IFNγ standards were plated (80 μL) in the empty columns (in triplicate) following incubation. A 5× solution of both antibodies was prepared by combining the Lumit Anti-hIFN-γ-mAb-LgBiT (24 μL) and the Lumit Anti-hIFN-γ-mAb-SmBiT (24 μL) with cell culture medium (2.4 mL). The 5× antibody solution (20 μL) was pipetted into each well. The microplate was briefly mixed for 15 seconds on a shaker at 250 rpm and incubated for 90 minutes at 37 °C, 5% CO2. Following incubation, the microplate was allowed to rest at 25 °C for 15 minutes. The Lumit detection substrate (160 μL) was diluted with Lumit detection buffer B (3040 μL) and pipetted into each well (25 μL). The microplate was allowed to incubate for 5 minutes at 25 °C and then the luminescence was measured using a Molecular Devices SpectraMax iD3 plate reader. A standard curve with averaged RLU measurements of the IFNγ concentrations was determined with GraphPad Prism using 4-parameter logistic curve fitting. […]

[4] = system: donor 3 PB NK cells (IFNγ secretion); experiment: 20 day treatment of PB NK cells, IFNγ in supernatant (Lumit IFNγ assay); type: cell-based, human; conditions: donor 3, fresh medium every 3 days, day 20
Procedure: The TME has the ability to down regulate NK cell activation and function, therefore it is important to discern whether inhibition of CD38 hydrolase activity over an extended period will improve NK cell activation and support a persistent response.[62] To address this question, donor 3 PB NK cells were plated on a 12-well plate at a confluency of 1 × 10^6 cells mL^−1 in Immunocult-XF T cell expansion medium supplemented with 500 IU mL^−1 IL-2, 10 ng mL^−1 IL-15, and 0.2 μL mL^−1 CD2/CD3/CD28 T cell activator. Cells were treated with vehicle control, 2, or 14. Cells were treated with fresh medium every 3 days over the course of 20 days. Cells from each treatment group were counted on the 20th day of treatment and viability determined using trypan blue. NK cells treated with 2 or 14 were normalized to vehicle control with the percent change in viable cells presented as a function of the treatment condition (Fig. 8A). We observed 43 ± 6% more viable cells in the group treated with 14 and 36 ± 13% more viable cells in the group treated with 2, relative to vehicle control. Additionally, on the 20th day of treatment the cell supernatant was collected and analyzed for IFNγ using the Promega Lumit IFNγ assay. Treatment groups were normalized to vehicle control and the data presented as IFNγ % difference as a function of treatment (Fig. 8B). […]

SHSY5Y-GFP NB cells = experiment: SHSY5Y-GFP and PB NK cell co-culture assay with ch14.18-IL2; type: cell-based, human
Procedure: Following optimization, SHSY5Y-GFP cells were plated at 25 000 cells per well and incubated for 24 hours. PB NK cells stained with cell tracker deep red were added to SHSY5Y-GFP cells with 50 ng mL^−1 ch14.18-IL2 and treated with 2, 14 or vehicle control. Cells were incubated for 90 minutes at 37 °C and imaged using a BioTek Cytation 5 at 20× (Fig. 11A–C). Live SHSY5Y-GFP cells were quantitated by measuring the integrated GFP fluorescence intensity. After only 90 minutes treatment with a 1.0 μM concentration of 2 and 50 ng mL^−1 ch14.18-IL2a caused a 14 ± 3% decrease in SHSY5Y-GFP fluorescent area (Fig. 11B) relative to vehicle-treated control (Fig. 11A). […] Fig. 12 is a close-up view from a representative well showing the effects of 1 μM 2 combined with 50 ng mL^−1 ch14.18-IL2.
SHSY5Y-GFP NB cells were plated at a concentration of 25 000 cells per well (100 μL) for 12 hours on a black, clear-bottom, 96-well microplate. PB NK cells were washed with PBS and resuspended in 5 μM cell tracker deep red in RPMI 1640 without FBS for 30 minutes at 37 °C, 5% CO2. Following incubation, cells were washed with PBS and resuspended in RPMI 1640 supplemented with 10% FBS. Compounds were dissolved in DMSO and diluted to a 4 μM working solution with cell culture medium. […] The sum integration of GFP area was measured and normalized to vehicle-treated control. […]

SHSY5Y-GFP cells = experiment: Proliferative effect on SHSY5Y-GFP cells alone, 24 h imaging; type: cell-based, human; conditions: 1.0 μM, at both 20 000 and 30 000 cells per well
Procedure: SHSY5Y-GFP cells were plated at 20 000, 30 000, 40 000, and 50 000 cells per well with 6 test wells each. Cells were incubated for 24 hours and imaged with a BioTek Cytation 5 at 20× with 4 fields per well using brightfield and GFP channels. The data is presented as the sum of SHSY5Y-GFP cells in imaged fields as a function of cells per well (Fig. 9A). Optimal plating density was determined to be between 20 000 and 30 000 cells per well. Additionally, we wanted to rule out proliferative effects in SHSY5Y-GFP cells treated with 2. Cells were plated at 20 000 or 30 000 cells per well and treated with varying concentrations of 2 or vehicle control for 24 hours and imaged as described above. Data was then expressed as the sum of SHSY5Y-GFP cells in imaged fields as a function of the concentration of 2 (Fig. 9B).

[5] = target: T1, human recombinant CD38 (hydrolase activity); experiment: Human recombinant CD38 fluorometric enzyme assay, hydrolase activity (εNAD+); type: biochemical; conditions: 25 μM compound
NAD+ levels = system: NAD+ levels; parameters: method as in PMID 35497564; conditions: cited from earlier work
CD38 cyclase activity = system: CD38 cyclase activity; parameters: method as in PMID 26864107; conditions: cited from earlier work
CD38 hydrolase activity [6] = system: CD38 hydrolase activity; parameters: method as in PMID 26864107; conditions: cited from earlier work

remaining activity at 50 µM [1] [%]	IC50 [1]	decrease in potency relative to hit compound 1 [1] [fold]	Compound	further results
61.6 ± 2	4.2 ± 0.5 µM	–	CC1=CC(C)(C)N=C(Nc2nc(C)c3cc(C)cc(C)c3n2)N1 [Compound 1]	mode of inhibition of CD38 hydrolase activity (CD38 hydrolase activity [2]): mixed inhibition
–	1.9 ± 0.1 µM	–	COc1cc(C)cc2c(C)nc(NC3=NC(C)(C)C=C(C)N3)nc12 [Compound 2, 8-Methoxy-4,6-dimethyl-N-(4,4,6-trimethyl-1,4-dihydropyrimidin-2-yl)quinazolin-2-amine]	increase in IFNγ, donor 1 ([3]; donor 1, 1.0 μM): 759 ± 45%; increase in IFNγ, donor 2 ([3]; donor 2, 0.111 μM): 100 ± 29%; increase in IFNγ, donor 3 ([3]; donor 3, 0.037 μM): 18 ± 2%; more IFNγ secreted relative to vehicle control [4]: 20 ± 1%; decrease in SHSY5Y-GFP fluorescent area relative to vehicle-treated control (SHSY5Y-GFP NB cells; 1.0 μM + 50 ng mL−1 ch14.18-IL2, 90 minutes, effector : target 1 : 1): 14% and 14 ± 3%; cell number difference between vehicle-treated and treated SHSY5Y-GFP cells (SHSY5Y-GFP cells): < 4%; remaining activity at 25 µM [5]: 5.6 ± 0.8%; change in NAD+ levels (NAD+ levels): significant increases
41 ± 0.03	8.4 ± 0.7 µM	2	CC1=CC(C)(C)N=C(Nc2nc(C)c3cccc(C)c3n2)N1 [Compound 3]	–
58.2 ± 1.4	5.1 ± 0.9 µM	–	Cc1cc(C)c2nc(Nc3nc(C)c(C)c(O)n3)nc(C)c2c1 [Compound 4]	–
57 ± 0.3	8 µM and 8.3 µM	2	CCOc1ccc2nc(Nc3nc(=O)c(Cc4ccccc4)c(C)[nH]3)nc(C)c2c1 [Compound 5]	–
66.8 ± 0.6	–	–	Cc1nc(NC2=NCCC(=O)N2)nc2ccccc12 [Compound 6]	–
60.3 ± 0.7	4 ± 0.9 µM	–	Cc1nc(Nc2nc(CCC(C)C)cc(=O)[nH]2)nc2ccccc12 [Compound 7]	–
–	–	–	Cc1nc(NC2=NCN(CCN3CCOCC3)CN2)nc2c(C)cccc12 [Compound 9]	remaining activity at 25 µM [5]: 65.3 ± 0.6%
49.1 ± 2.2	23 µM and 23.8 µM	5	CC1=CC(C)(C)N=C(Nc2nc(-c3ccccc3)c3cc(C)cc(C)c3n2)N1 [Compound 11]	–
52 ± 9.6	–	~3	CC1=NC(Nc2nc(C)c3cc(C)cc(C)c3n2)=NC(C)(C)C1 [Compound 12]	–
48.1 ± 6.8	22.4 ± 1.1 µM	–	CCc1ccc2c(C)nc(NC3=NC(C)(C)C=C(C)N3)nc2c1 [Compound 13]	–
–	0.078 ± 0.03 µM	–	COCCO[C@H]1CC[C@H](Nc2cc(=O)n(C)c3ccc(-c4cncs4)cc23)CC1 [Compound 14, reference compound]	remaining activity at 0.05 µM ([1]; positive control 14, used at 50.0 nM according to b14 and b58): 60.3 ± 1.8%; increases in IFNγ levels, in words ([3]; all 3 donors): similaer to the effects of 2; more IFNγ secreted relative to vehicle control [4]: 23 ± 2%; difference in SHSY5Y-GFP cells versus vehicle-treated control, in words (SHSY5Y-GFP NB cells; 1 μM + 50 ng mL−1 ch14.18-IL2, 90 minutes): not a statistically significant difference; mode of inhibition of CD38 (CD38 hydrolase activity [2]): mixed inhibition; change in NAD+ levels (NAD+ levels): significant increases
–	–	–	daratumumab	effect on CD38 cyclase activity (CD38 cyclase activity): modest inhibitory activity; effect on CD38 hydrolase activity (CD38 hydrolase activity [6]): enhances CD38 hydrolase activity
